Measurements published in patent US6916801B2, “7-Alkylidene-3-substituted-3-cephem-4-carboxylates as β-lactamase inhibitors” (Alamx, LLC, priority 2001, dated 2005).
pIC50: −log10 of the molar value. Where two headings read alike, the source gives them in different places.

Assays:
[1] = target: Class C β-lactamase of Enterobacter cloacae P-99, a cephalosporinase (Enterobacter cloacae, UniProt P05364); test: biochemical
Experimental: (§1) Representative compounds of formula (I) were evaluated as inhibitors of the Class C β-lactamase of Enterobacter cloacae P-99, a cephalosporinase, and TEM-1, a Class A penicillinase, by relative IC50 analysis. The IC50 value represents the concentration of inhibitor required to effect a 50% loss of activity of free enzyme. The IC50 value of each compound was determined as follows. Following a 10 minute incubation of a dilute solution of enzyme (2.56 nM) and inhibitor (<0.64 mM), a […] of this incubation mixture was then further diluted into 1 mL nitrocefin solution, and the rate of hydrolysis was measured during a 1 minute period by monitoring the absorbance of nitrocefin as a function of time.

[2] = target: TEM-1, a Class A penicillinase (Escherichia coli, UniProt P62593); test: beta-lactamase inhibition, relative IC50 analysis by nitrocefin hydrolysis (class A enzyme); assay type: biochemical; settings: class A β-lactamase; 10 minute incubation of enzyme (2.56 nM) and inhibitor; nitrocefin substrate
Experimental: as §1

[3] = class C β-lactamase, 10 minute incubation of enzyme (2.56 nM) and inhibitor, nitrocefin substrate, read-out: P99 (IC50, μm)

Sequence of TEM-1, a Class A penicillinase (P62593 24-286 limits assumed): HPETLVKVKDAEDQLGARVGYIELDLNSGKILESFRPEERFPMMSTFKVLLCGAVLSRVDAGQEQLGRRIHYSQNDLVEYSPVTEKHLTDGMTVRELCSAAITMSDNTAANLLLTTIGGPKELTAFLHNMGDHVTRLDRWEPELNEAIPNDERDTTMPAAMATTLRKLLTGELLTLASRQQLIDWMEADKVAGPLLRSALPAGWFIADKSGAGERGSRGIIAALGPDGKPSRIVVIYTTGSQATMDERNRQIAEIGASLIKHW
Sequence of Class C β-lactamase of Enterobacter cloacae P-99, a cephalosporinase (P05364 21-381): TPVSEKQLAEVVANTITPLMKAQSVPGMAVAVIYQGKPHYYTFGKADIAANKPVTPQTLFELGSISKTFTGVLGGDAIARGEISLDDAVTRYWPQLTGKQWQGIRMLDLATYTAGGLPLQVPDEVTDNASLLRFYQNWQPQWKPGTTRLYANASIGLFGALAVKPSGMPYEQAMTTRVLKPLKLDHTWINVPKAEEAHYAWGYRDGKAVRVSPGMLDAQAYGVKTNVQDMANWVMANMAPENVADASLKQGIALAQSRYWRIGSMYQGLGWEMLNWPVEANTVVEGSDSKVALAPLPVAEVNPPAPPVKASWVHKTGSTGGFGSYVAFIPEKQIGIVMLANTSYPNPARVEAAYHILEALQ

| SMILES | pIC50 [1, 3] | pIC50 [2] | pIC50 [1] |
| --- | --- | --- | --- |
| O=C(O)C1=C(Cl)CS(=O)(=O)C2C(=Cc3ccccn3)C(=O)N12 (centres unmarked) [Compound 7a, Sodium 3-chloro-1,1-dioxo-7-(2′-pyridylmethylidine)-3-cephem-4-carboxylate] | 8.52 | 5.74 | – |
| O=C(O)C1=C(Br)CS(=O)(=O)C2C(=Cc3ccccn3)C(=O)N12 (centres unmarked) [Compound 7b, Sodium 3-bromo-1,1-dioxo-7-(2′-pyridylmethylidine)-3-cephem-4-carboxylate] | – | 6.10 | 8.54 |
| O=C(O)C1=C(I)CS(=O)(=O)C2C(=Cc3ccccn3)C(=O)N12 (centres unmarked) [Compound 7c, Sodium 1,1-dioxo-3-iodo-7-(2′-pyridylmethylidine)-3-cephem-4-carboxylate] | – | 5.89 | 8.33 |
| CSC1=C(C(=O)O)N2C(=O)C(=Cc3ccccn3)C2S(=O)(=O)C1 (centres unmarked) [Compound 9a, Sodium 1,1-dioxo-3-methylsulfanyl-7-(2′-pyridylmethylidine)-3-cephem-4-carboxylate] | – | 5.97 | 7.23 |
| O=C(O)C1=C(Sc2ccccc2)CS(=O)(=O)C2C(=Cc3ccccn3)C(=O)N12 (centres unmarked) [Compound 9b, Sodium 1,1-dioxo-3-phenylsulfanyl-7-(2′-pyridylmethylidine)-3-cephem-4-carboxylate] | 7.66 | 7.92 | – |
| O=C(O)C1=C(c2cccs2)CS(=O)(=O)C2C(=Cc3ccccn3)C(=O)N12 (centres unmarked) [Compound 9c, Sodium 1,1-dioxo-7-(2′-pyridylmethylidine)-3-(thiophen-2′-yl)-3-cephem-4-carboxylate] | – | 5.45 | 7.37 |
| O=C(O)C1=C(c2ccccc2)CS(=O)(=O)C2C(=Cc3ccccn3)C(=O)N12 (centres unmarked) [Compound 9d, Sodium 1,1-dioxo-3-phenyl-7-(2′-pyridylmethylidine)-3-cephem-4-carboxylate] | 7.42 | 5.04 | – |
| CS(=O)(=O)C1=C(C(=O)O)N2C(=O)C(=Cc3ccccn3)C2S(=O)(=O)C1 (centres unmarked) [Compound 11a, Sodium 1,1-dioxo-3-methylsulfonyl-7-(2′-pyridylmethylidine)-3-cephem-4-carboxylate] | – | 8.12 | 7.04 |
| O=C(O)C1=C(S(=O)(=O)c2ccccc2)CS(=O)(=O)C2C(=Cc3ccccn3)C(=O)N12 (centres unmarked) [Compound 11b, Sodium 1,1-dioxo-3-phenylsulfonyl-7-(2′-pyridylmethylidine)-3-cephem-4-carboxylate] | – | 8.03 | 6.76 |
| O=C(O)C1=C(F)CS(=O)(=O)C2C(=Cc3ccccn3)C(=O)N12 (centres unmarked) [Compound 14a, Sodium 1,1-dioxo-3-fluoro-7-(2′-pyridylmethylidine)-3-cephem-4-carboxylate] | 7.96 | 5.74 | – |
| O=C(O)C1=CCS(=O)(=O)C2C(=Cc3ccccn3)C(=O)N12 (centres unmarked) [Compound 14b, Sodium 1,1-dioxo-7-(2 ′-pyridylmethylidine)-3-cephem-4-carboxylate] | – | 4.73 | 6.94 |
| O=C(C=CC1=C(C(=O)O)N2C(=O)C(=Cc3ccccn3)C2S(=O)(=O)C1)NC1CC1 (centres unmarked) [Compound 18a] | 6.08 | 6.62 | – |
| O=C(C=CC1=C(C(=O)O)N2C(=O)C(=Cc3ccccn3)C2S(=O)(=O)C1)NO (centres unmarked) [Compound 18b, Sodium 3-(N-hydroxy-2′-carbamoylvinyl)-1,1-dioxo-7-(2″-pyridylmethylidine)-3-cephem-4-carboxylate] | – | 5.11 | 6.89 |
| NNC(=O)C=CC1=C(C(=O)O)N2C(=O)C(=Cc3ccccn3)C2S(=O)(=O)C1 (centres unmarked) [Compound 21a] | 5.96 | 6.41 | – |
| NCCCNC(=O)C=CC1=C(C(=O)O)N2C(=O)C(=Cc3ccccn3)C2S(=O)(=O)C1 (centres unmarked) [Compound 21b, Sodium 3-{[N-(3″-aminopropyl)-2′-carbamoyl]vinyl)}-1,1-dioxo-7-(2′″-pyridylmethylidine-3-cephem-4-carboxylate] | 5.38 | 5.80 | – |
| CN1CCN(C(=O)C=CC2=C(C(=O)O)N3C(=O)C(=Cc4ccccn4)C3S(=O)(=O)C2)CC1 (centres unmarked) [Compound 21c, Sodium 3-[3 ′-(4″-methylpiperazin-1″-yl)-3′-oxopropenyl]-1,1-dioxo-7-(2′″-puridylmethylidine)-3-cephem-4-carboxylate] | – | 7.28 | 5.20 |
